From US20220235057A1, “CYCLIC FORMYL AND CYCLIC KETONE COMPOUNDS, PREPARATION METHOD THEREFOR, AND PHARMACEUTICAL USE” (priority 2019, published 2022)

Key:
Type in all cases: cell-based
Zika virus (ZIKV) = assay: anti-Zika virus activity (inhibition rate); details: for inhibition at 11 µM / inhibition at 33 µM: Zika virus
Usutu virus (USUV) = assay: anti-Usutu virus activity (inhibition rate); details: for inhibition at 11 µM / inhibition at 33 µM: Usutu virus
[1] = system: drug resistant strains of Acinetobacter baumannii; assay: anti-drug resistant strains of Acinetobacter baumannii (inhibition zone)

Row | Structure (SMILES) | inhibition at 11 µM (Zika virus (ZIKV); Drug concentration 11 μM) | inhibition at 33 µM (Zika virus (ZIKV); Drug concentration 33 μM) | inhibition at 11 µM (Usutu virus (USUV); Drug concentration 11 μM) | inhibition at 33 µM (Usutu virus (USUV); Drug concentration 33 μM) | other results
1 | O=C1C2CCCC2C(c2ccccc2)N1c1ccc([N+](=O)[O-])cc1 (centres unmarked) [ZDL-61] | < 0% | 0 to 100% | < 0% | > 100% | –
2 | O=C1C(c2ccccc2)C(c2ccc(O)cc2)N2CCC[C@@H]12 (some centres unmarked) [ZXP-10] | – | – | < 0% | 0 to 100% | –
3 | CC(C)(C)[Si](C)(C)Oc1ccc(C2N(Nc3ccccc3)C(=O)C3CCc4ccccc4N32)cc1 (centres unmarked) [ZXD-131B] | < 0% | < 0% | 0 to 100% | – | –
4 | O=C1C2CCc3ccccc3N2[C@@H](c2cc3ccccc3s2)N1Nc1ccccc1 (some centres unmarked) [ZXD-178B] | > 100% | – | 0 to 100% | – | –
5 | O=C1[C@@H]2Cc3ccccc3N2[C@@H](c2ccc([N+](=O)[O-])cc2)N1NS(=O)(=O)c1ccc([N+](=O)[O-])cc1 [ZDL-38] | < 0% | < 0% | < 0% | 0 to 100% | –
6 | O=C(NNc1ccccc1)C1CCc2ccccc2N1C(=O)OCc1ccccc1 (centres unmarked) [ZXD-51] | – | – | – | – | Anti-ZIKV activity (inhibition rate) (Zika virus (ZIKV); Drug concentration 11 μM): − (−: Inactive); Anti-ZIKV activity (inhibition rate) (Zika virus (ZIKV); Drug concentration 33 μM): + (+: Partial suppression); Anti-USUV activity (inhibition rate) (Usutu virus (USUV); Drug concentration 11 μM): − (−: Inactive); Anti-USUV activity (inhibition rate) (Usutu virus (USUV); Drug concentration 33 μM): − (−: Inactive)
7 | C=C1CC[C@@H]2[C@]3(C)COC(C)(C)O[C@@H]3CC[C@@]2(C)[C@@H]1C[C@H]1N(Nc2ccc([N+](=O)[O-])cc2)C(=O)[C@@H]2Cc3ccccc3N21 [ZDL-43] | > 100% | > 100% | > 100% | > 100% | –
8 | O=C(Nc1ccc([N+](=O)[O-])cc1)C1CCc2ccccc2N1 (centres unmarked) [ZXD-53] | < 0% | 0 to 100% | < 0% | < 0% | –
9 | COc1cc([C@H]2N(Nc3ccccc3)C(=O)[C@@H]3Cc4ccccc4N32)ccc1O [ZDL-21] | < 0% | 0 to 100% | < 0% | < 0% | –
10 | CC(C)(C)[Si](C)(C)OCc1ccc(C2N(Nc3ccccc3)C(=O)C3CCc4ccccc4N32)cc1 (centres unmarked) [ZXD-156B] | > 100% | – | > 100% | – | –
11 | CC(C)(C)[Si](C)(C)Oc1ccc(C2N(Cc3ccccc3)C(=O)C3CCc4ccccc4N32)cc1 (centres unmarked) [ZXD-241B] | < 0% | > 100% | < 0% | > 100% | –
12 | O=C1[C@H]2CCc3ccccc3N2C(c2ccc(O)cc2)N1Nc1ccccc1 (some centres unmarked) [ZXD-86A] | < 0% | > 100% | < 0% | < 0% | –
13 | O=C(Nc1ccc([N+](=O)[O-])cc1)C1CCc2ccccc2N1C(=O)O (centres unmarked) [ZXD-62] | – | – | – | – | Anti-ZIKV activity (inhibition rate) (Zika virus (ZIKV); Drug concentration 11 μM): − (−: Inactive); Anti-ZIKV activity (inhibition rate) (Zika virus (ZIKV); Drug concentration 33 μM): +++ (+++: Complete suppression); Anti-USUV activity (inhibition rate) (Usutu virus (USUV); Drug concentration 11 μM): − (−: Inactive); Anti-USUV activity (inhibition rate) (Usutu virus (USUV); Drug concentration 33 μM): + (+: Partial suppression)
14 | O=C1[C@@H]2CCc3ccccc3N2[C@@H](c2ccc(O)cc2)N1c1ccc([N+](=O)[O-])cc1 [ZXD-121] | > 100% | – | < 0% | < 0% | –
15 | O=C1C2Cc3ccccc3CN2C(c2ccc(O)c(O)c2)N1Nc1ccccc1 (centres unmarked) [ZSD-30A] | – | – | – | – | Anti-ZIKV activity (inhibition rate) (Zika virus (ZIKV); Drug concentration 11 μM): − (−: Inactive); Anti-ZIKV activity (inhibition rate) (Zika virus (ZIKV); Drug concentration 33 μM): − (−: Inactive); Anti-USUV activity (inhibition rate) (Usutu virus (USUV); Drug concentration 11 μM): − (−: Inactive); Anti-USUV activity (inhibition rate) (Usutu virus (USUV); Drug concentration 33 μM): +++ (+++: Complete suppression)
16 | COc1cc(C2N(c3ccc([N+](=O)[O-])cc3)C(=O)[C@@H]3Cc4ccccc4CN23)ccc1O (some centres unmarked) [ZSD-8] | 0 to 100% | > 100% | < 0% | < 0% | –
17 | COc1ccc(C2N(c3ccc([N+](=O)[O-])cc3)C(=O)[C@@H]3Cc4ccccc4CN23)cc1OC (some centres unmarked) [ZSD-12B] | < 0% | < 0% | < 0% | 0 to 100% | –

Row | Structure (SMILES) | inhibition at 11 µM (Zika virus (ZIKV); Drug concentration 11 μM) | inhibition at 33 µM (Zika virus (ZIKV); Drug concentration 33 μM) | inhibition at 11 µM (Usutu virus (USUV); Drug concentration 11 μM) | inhibition at 33 µM (Usutu virus (USUV); Drug concentration 33 μM) | other results
18 | O=C1[C@@H]2Cc3ccccc3CN2C(Cc2ccc(O)c(O)c2)N1Nc1ccccc1 (some centres unmarked) [ZSD-36] | – | – | – | – | Anti-ZIKV activity (inhibition rate) (Zika virus (ZIKV); Drug concentration 11 μM): − (−: Inactive); Anti-ZIKV activity (inhibition rate) (Zika virus (ZIKV); Drug concentration 33 μM): − (−: Inactive); Anti-USUV activity (inhibition rate) (Usutu virus (USUV); Drug concentration 11 μM): − (−: Inactive); Anti-USUV activity (inhibition rate) (Usutu virus (USUV); Drug concentration 33 μM): + (+: Partial suppression)
19 | COc1ccc(CC2N(Nc3ccccc3)C(=O)C3CCc4ccccc4N32)cc1OC (centres unmarked) [ZXD-140] | 0 to 100% | – | < 0% | > 100% | –
20 | O=C(NN1C(=O)[C@@H]2Cc3ccccc3N2[C@H]1c1ccc([N+](=O)[O-])cc1)c1ccc([N+](=O)[O-])cc1 [ZDL-11] | < 0% | < 0% | < 0% | 0 to 100% | –
21 | CC1(C)OC[C@]2(C)C(CC[C@@]3(C)[C@H](C[C@H]4N(NS(=O)(=O)c5ccc([N+](=O)[O-])cc5)C(=O)[C@@H]5Cc6ccccc6N54)C(=O)CC[C@@H]32)O1 (some centres unmarked) [ZDL-41] | – | – | – | – | Anti-ZIKV activity (inhibition rate) (Zika virus (ZIKV); Drug concentration 11 μM): +++ (+++: Complete suppression); Anti-USUV activity (inhibition rate) (Usutu virus (USUV); Drug concentration 11 μM): +++ (+++: Complete suppression)
22 | O=C1C2CCc3ccccc3N2[C@@H](c2cccc3nonc23)N1Nc1ccccc1 (some centres unmarked) [ZXD-181A] | – | – | – | – | Anti-ZIKV activity (inhibition rate) (Zika virus (ZIKV); Drug concentration 11 μM): +++ (+++: Complete suppression); Anti-ZIKV activity (inhibition rate) (Zika virus (ZIKV); Drug concentration 33 μM): +++ (+++: Complete suppression); Anti-USUV activity (inhibition rate) (Usutu virus (USUV); Drug concentration 11 μM): − (−: Inactive); Anti-USUV activity (inhibition rate) (Usutu virus (USUV); Drug concentration 33 μM): + (+: Partial suppression)
23 | O=C1C2CCCC2C(c2ccc(Cl)cc2)N1c1ccccc1 (centres unmarked) [ZDL-62] | < 0% | 0 to 100% | < 0% | > 100% | –
24 | O=C1[C@@H]2Cc3ccccc3CN2C(c2ccc(O)cc2)N1Nc1ccccc1 (some centres unmarked) [ZSD-20] | – | – | – | – | Anti-ZIKV activity (inhibition rate) (Zika virus (ZIKV); Drug concentration 11 μM): − (−: Inactive); Anti-ZIKV activity (inhibition rate) (Zika virus (ZIKV); Drug concentration 33 μM): +++ (+++: Complete suppression); Anti-USUV activity (inhibition rate) (Usutu virus (USUV); Drug concentration 11 μM): − (−: Inactive); Anti-USUV activity (inhibition rate) (Usutu virus (USUV); Drug concentration 33 μM): + (+: Partial suppression)
25 | O=C1[C@@H]2Cc3ccccc3CN2C(c2ccc(O)c(O)c2)N1c1ccc([N+](=O)[O-])cc1 (some centres unmarked) [ZSD-11] | < 0% | > 100% | < 0% | 0 to 100% | –
26 | O=C1C2CCc3ccccc3N2C(c2cc3ccccc3s2)N1Nc1ccccc1 (centres unmarked) [ZXD-178A] | – | – | – | – | Anti-ZIKV activity (inhibition rate) (Zika virus (ZIKV); Drug concentration 11 μM): +++ (+++: Complete suppression); Anti-USUV activity (inhibition rate) (Usutu virus (USUV); Drug concentration 11 μM): + (+: Partial suppression)
27 | CC(C)(C)[Si](C)(C)Oc1cccc(C2N(Nc3ccccc3)C(=O)C3CCc4ccccc4N32)c1 (centres unmarked) [ZXD-147B] | > 100% | – | > 100% | – | –
28 | O=C1C2CCc3ccccc3N2C(c2ccc(O)cc2)N1Nc1ccccc1 (single isomer, unassigned) [ZXD-86B] | – | – | – | – | Anti-ZIKV activity (inhibition rate) (Zika virus (ZIKV); Drug concentration 11 μM): + (+: Partial suppression); Anti-ZIKV activity (inhibition rate) (Zika virus (ZIKV); Drug concentration 33 μM): +++ (+++: Complete suppression); Anti-USUV activity (inhibition rate) (Usutu virus (USUV); Drug concentration 11 μM): +++ (+++: Complete suppression); Anti-USUV activity (inhibition rate) (Usutu virus (USUV); Drug concentration 33 μM): +++ (+++: Complete suppression)
29 | O=C1C2CCCC2C(c2ccccc2)N1c1ccccc1 (centres unmarked) [ZDL-60] | < 0% | 0 to 100% | < 0% | 0 to 100% | –
30 | O=C1[C@@H]2Cc3ccccc3N2[C@@H](c2ccc(O)cc2)N1NS(=O)(=O)c1ccc([N+](=O)[O-])cc1 [ZDL-39] | < 0% | 0 to 100% | < 0% | < 0% | –
31 | O=C1[C@@H]2Cc3ccccc3N2[C@@H](c2ccc([N+](=O)[O-])cc2)N1Nc1ccccc1 [ZDL-19] | < 0% | 0 to 100% | < 0% | > 100% | –
32 | O=C1[C@@H]2Cc3ccccc3CN2C(c2ccc(O)cc2)N1c1ccc([N+](=O)[O-])cc1 (some centres unmarked) [ZSD-7] | – | – | – | – | Anti-ZIKV activity (inhibition rate) (Zika virus (ZIKV); Drug concentration 11 μM): − (−: Inactive); Anti-ZIKV activity (inhibition rate) (Zika virus (ZIKV); Drug concentration 33 μM): +++ (+++: Complete suppression); Anti-USUV activity (inhibition rate) (Usutu virus (USUV); Drug concentration 11 μM): − (−: Inactive); Anti-USUV activity (inhibition rate) (Usutu virus (USUV); Drug concentration 33 μM): +++ (+++: Complete suppression)
33 | O=C1C2CCc3ccccc3N2C(c2ccc(CO)cc2)N1Nc1ccccc1 (centres unmarked) [ZXD-157B] | – | – | > 100% | – | –
34 | COc1cc([C@@H]2N(Nc3ccccc3)C(=O)C3CCCCN32)ccc1O (some centres unmarked) [ZKD-18A] | – | – | – | – | inhibition zone, diameter ([1]; resistant strain of Acinetobacter baumannii no. 16): 68 mm; inhibition zone, diameter ([1]; resistant strain of Acinetobacter baumannii no. 17): 68 mm; inhibition zone, diameter ([1]; resistant strain of Acinetobacter baumannii no. 18): 68 mm; inhibition zone, diameter ([1]; resistant strain of Acinetobacter baumannii no. 19): 68 mm; inhibition zone, diameter ([1]; resistant strain of Acinetobacter baumannii no. 20): 68 mm
